Laboratory results from patent US10807968B2, “Substituted 2-(het)arylimidazolylcarboxyamides as pesticides” (Bayer CropScience Aktiengesellschaft, priority 2016, dated 2020).
Where two headings read alike, the source gives them in different places.

What was measured:
[1] = log P determination by HPLC on reversed-phase (C18) columns, OECD Guideline 117; assay type: physicochemical; settings: for chromatographic logP: reversed-phase (C18) HPLC column
Procedure: The log P values were determined in accordance with OECD Guideline 117 (EC Directive 92/69/EEC) by HPLC (high-performance liquid chromatography) using reversed-phase (RP) columns (C18), by the following methods:
[a] The LC-MS determination in the acidic range was carried out at pH 2.7 with 0.1% aqueous formic acid and acetonitrile (contains 0.1% formic acid) as mobile phases; linear gradient from 10% acetonitrile to 95% acetonitrile.
[b] LC-MS determination in the neutral range was carried out at pH 7.8 with 0.001 molar aqueous ammonium hydrogencarbonate solution and acetonitrile as mobile phases; linear gradient from 10% acetonitrile to 95% acetonitrile.

Myzus persicae [2] = assay: Myzus persicae - oral test; assay type: in vivo; settings: after 5 days; for efficacy in % (aphids killed): 20 ppm; for pest or weed control at 20 ppm: Myzus persicae, 120 h, read-out: efficacy in % (aphids killed)
Procedure: (§1) Solvent: 100 parts by weight of acetone
Subsequently, the plates are sealed with parafilm, which a mixed population of green peach aphids (Myzus persicae) within a second microtitre plate is able to puncture and imbibe the solution through it.
After 5 days, the efficacy in % is determined. 100% means that all the aphids have been killed; 0% means that no aphids have been killed.

Myzus persicae [3] = assay: Myzus persicae - spray test (bell pepper plants); assay type: in vivo; settings: 20 ppm, after 6 days
Procedure: Myzus persicae—Spray Test Solvent: 14 parts by weight of dimethylformamide Emulsifier: alkylaryl polyglycol ether […] To produce further test concentrations, the formulation is diluted with emulsifier-containing water. If the addition of ammonium salts or/and penetrants is required, these are each added in a concentration of 1000 ppm to the formulation solution. Bell pepper plants (Capsicum annuum) severely infested with the green peach aphid (Myzus persicae) are treated by spraying with the active compound formulation in the desired concentration.

Myzus persicae [4] = assay: Myzus persicae - oral test (MYZUPE O), comparison with prior art; assay type: in vivo; settings: 120 h, MYZUPE O, 4 ppm, 5 dat, read-out: % efficacy dat
Procedure: Myzus persicae—Oral Test (MYZUPE O)
as §1
(§2) To produce a suitable preparation of active compound, 1 part by weight of active compound is dissolved using the specified parts by weight of solvent and made up with water until the desired concentration is attained.
50 μl of the active compound preparation are transferred into microtitre plates and made up to a final volume of 200 μl with 150 μl of IPL41 insect medium (33%+15% sugar). Subsequently, the plates are sealed with parafilm, which a mixed population of green peach aphids (Myzus persicae) within a second microtitre plate is able to puncture and imbibe the solution through it.
After 5 or 6 days (dat), the efficacy in % is determined. 100% means that all the aphids have been killed; 0% means that no aphids have been killed.

Myzus persicae [5] = assay: Myzus persicae - spray test (MYZUPE), comparison with prior art; assay type: in vivo; settings: MYZUPE, 100 g ai/ha, read-out: % efficacy dat
Procedure: Myzus persicae—Spray Test (MYZUPE)
(§3) Solvent: 78.0 parts by weight of acetone • • 1.5 parts by weight of dimethylformamide
(§4) Emulsifier: alkylaryl polyglycol ether
as §2, with “water containing an emulsifier concentration of 1000 ppm” for “water”, “attained. To produce further test concentrations, the formulation is diluted with emulsifier-containing water.” for “attained.”
Discs of Chinese cabbage leaves (Brassica pekinensis) infested by all stages of the green peach aphid (Myzus persicae) are sprayed with an active compound preparation of the desired concentration.
After the desired period of time, the efficacy in % is determined. 100% means that all the aphids have been killed; 0% means that no aphids have been killed.

Myzus persicae [6] = assay: Myzus persicae - spray test (Chinese cabbage leaf discs); assay type: in vivo; settings: 500 g/ha, after 6 days; for pest or weed control at 500 g/ha: Myzus persicae, foliar, 144 h, read-out: efficacy in % (aphids killed)
Procedure: Myzus persicae—Spray Test
Solvent: 78 parts by weight of acetone • • 1.5 parts by weight of dimethylformamide
as §4
as §2, with “water containing an emulsi fier concentration of 1000 ppm” for “water”, “attained. To produce further test concentrations, the formulation is diluted with emulsifier-containing water.” for “attained.”
Discs of Chinese cabbage leaves (Brassica pekinensis) infested by all stages of the green peach aphid (Myzus persicae) are sprayed with an active compound formulation of the desired concentration.
After 6 days, the efficacy in % is determined. 100% means that all the aphids have been killed; 0% means that no aphids have been killed.

Tetranychus urticae = Tetranychus urticae - spray test, OP-resistant; assay type: in vivo; settings: 500 g/ha, after 6 days, bean leaf discs
Procedure: Tetranychus Urticae—Spray Test, OP-Resistant
as §3, §4
as §2, with “water containing an emulsifier concentration of 1000 ppm” for “water”, “attained. To produce further test concentrations, the formulation is diluted with emulsifier-containing water.” for “attained.”
Discs of bean leaves (Phaseolus vulgaris) infested with all stages of the greenhouse red spider mite (Tetranychus urticae) are sprayed with an active compound formulation of the desired concentration.
After 6 days, the efficacy in % is determined. 100% means that all the spider mites have been killed; 0% means that no spider mites have been killed.

[7] = HPLC, acidic range pH 2.7, 0.1% aqueous formic acid/acetonitrile
[8] = pH 2.7, HPLC, acidic range pH 2.7, 0.1% aqueous formic acid/acetonitrile, read-out: logp-acidic
[9] = pH 7.8, HPLC, neutral range pH 7.8, 0.001 molar aqueous ammonium hydrogencarbonate/acetonitrile, read-out: logp-neutral

logp-acidic ([1]; pH 2.7) | logp-neutral ([1]; pH 7.8) | SMILES | efficacy in % (aphids killed) (Myzus persicae [2]) | kill in % (aphids killed) (Myzus persicae [3]) | Emax at 4 ppm (Myzus persicae [4]) | efficacy in % (aphids killed) (Myzus persicae [6]) | also measured
– | – | CN(C(=O)c1cnc(-c2ccc(Cl)cc2Cl)n1C)c1cccnc1 [Example 12] | 100% | 100% | – | – | logp-acidic [1, 7]: 1.66
2.17 | 2.43 | CN(C(=O)c1cnc(-c2cc(Cl)cc(C(F)(F)F)c2)n1C)c1cccnc1 [Example 51] | 100% | 100% | – | – | –
– | – | O=C(Nc1cccnc1)c1c[nH]cn1 [Comparative Ex. 2, reference compound] | – | – | 0% | – | Emax at 100 g/ha (Myzus persicae [5]; 144 h, 6 dat): 0%
– | – | COc1cc(-c2ncc(C(=O)N(C)c3cccnc3)n2C)cc(C(F)(F)F)n1 [Example 99] | – | – | 100% | – | chromatographic logP [1, 8]: 2.05; chromatographic logP [1, 9]: 2.23; pest or weed control at 20 ppm (Myzus persicae [2]): 100%; pest or weed control at 500 g/ha (Myzus persicae [6]): 90%; Emax at 100 g/ha (Myzus persicae [5]; 120 h, 5 dat): 70%
– | – | CN(C(=O)c1cnc(-c2ncccn2)n1C)c1cccnc1 [Example 4] | – | – | 100% | – | chromatographic logP [1, 8]: 0.35; chromatographic logP [1, 9]: 0.73; pest or weed control at 20 ppm (Myzus persicae [2]): 100%; pest or weed control at 500 g/ha (Myzus persicae [6]): 90%; Emax at 100 g/ha (Myzus persicae [5]; 144 h, 6 dat): 90%
– | – | CCN(C(=O)c1cnc(-c2ccccn2)n1C)c1cccnc1 [Example 77] | 100% | 100% | – | 100% | logp-acidic [1, 7]: 0.97; logp-neutral ([1]; HPLC, neutral range pH 7.8, 0.001 molar aqueous ammonium hydrogencarbonate/acetonitrile): 1.39
– | – | Cc1nc(C(=O)Nc2cccnc2)c[nH]1 [Comparative Ex. 1, reference compound] | – | – | 0% | – | Emax at 100 g/ha (Myzus persicae [5]; 5/6 dat): 0%
1.42 | 1.51 | CCOC(=O)c1cc(-c2ncc(C(=O)N(C)c3cccnc3)n2C)on1 [Example 72] | 100% | – | – | – | efficacy in % (spider mites killed) (Tetranychus urticae): 90%
– | – | COc1ncc(Cl)cc1-c1ncc(C(=O)N(C)c2cccnc2)n1C [Example 87] | – | – | 100% | – | chromatographic logP [1, 8]: 1.35; chromatographic logP [1, 9]: 1.64; pest or weed control at 20 ppm (Myzus persicae [2]): 100%; pest or weed control at 500 g/ha (Myzus persicae [6]): 100%; Emax at 100 g/ha (Myzus persicae [5]; 120 h, 5 dat): 90%
1.39 | 1.81 | CC(=O)OCc1cc(-c2ncc(C(=O)N(C)c3cccnc3)n2C)ccc1F [Example 44] | 90% | – | – | 90% | –
1.19 | 1.70 | CN(C(=O)c1cnc(-c2cnn(-c3ccccc3)c2)n1C)c1cccnc1 [Example 26] | 100% | – | – | 90% | –
– | 1.96 | CN(C(=O)c1cnc(-c2cccc(CC(F)(F)F)c2)n1C)c1cccnc1 [Example 56] | 100% | – | – | 90% | –
0.73 | 1.35 | CN(C(=O)c1cnc(-c2ccc(F)c(COC(=O)C3CC3)c2)n1C)c1cccnc1 [Example 46] | 100% | 95% | – | – | –
